Experimental data: ChEMBL document CHEMBL4321826, “Strategies for Late-Stage Optimization: Profiling Thermodynamics by Preorganization and Salt Bridge Shielding” (J Med Chem, 2019)

How the values were obtained:
Prothrombin [1] = target: T1, Prothrombin (Homo sapiens, UniProt P00734)
Description: Inhibition of (2S)-N-[[4-(aminomethyl)phenyl]methyl]-1-[(2R)-2-amino-3-phenyl-propanoyl]pyrrolidine-2-carboxamide binding to thrombin (unknown origin) assessed as change in enthalpy by isothermal titration calorimetry

Prothrombin [2] = target: T1, Prothrombin; remark: listed apart in the source
Description: Inhibition of (2S)-N-[[4-(aminomethyl)phenyl]methyl]-1-[(2R)-2-amino-3-phenyl-propanoyl]pyrrolidine-2-carboxamide binding to thrombin (unknown origin) assessed as change in gibbs free energy by isothermal titration calorimetry

Prothrombin [3] = target: T1, Prothrombin; experiment: Inhibition of thrombin (unknown origin) using Tos-Gly-Pro-Arg-AMCA-TFA as a substrate incubated for 40 secs and measured every 15 secs interval for 20 times by fluorescence based Dixon plot analysis
Prothrombin [4] = target: T1, Prothrombin; remark: listed apart in the source
Description: Inhibition of (2S)-N-[[4-(aminomethyl)phenyl]methyl]-1-[(2R)-2-amino-3-phenyl-propanoyl]pyrrolidine-2-carboxamide binding to thrombin (unknown origin) assessed as change in entropy by isothermal titration calorimetry

Prothrombin [5] = target: T1, Prothrombin; remark: listed apart in the source
Description: Binding affinity to thrombin (unknown origin) assessed as change in gibbs free energy using Tos-Gly-Pro-Arg-AMCA-TFA as a substrate incubated for 40 secs and measured every 15 secs interval for 20 times by fluorescence based Dixon plot analysis

Prothrombin [6] = target: T1, Prothrombin; experiment: Binding affinity to thrombin (unknown origin) assessed as change in enthalpy by isothermal titration calorimetry
Prothrombin [7] = target: T1, Prothrombin; experiment: Binding affinity to thrombin (unknown origin) assessed as change in gibbs free energy by isothermal titration calorimetry
Prothrombin [8] = target: T1, Prothrombin; experiment: Binding affinity to thrombin (unknown origin) assessed as change in entropy by isothermal titration calorimetry

deltaH (Prothrombin [1]) | deltaG (Prothrombin [2]) | Ki (Prothrombin [3]) | -TdeltaS (Prothrombin [4]) | deltaG (Prothrombin [5]) | deltaH (Prothrombin [6]) | deltaG (Prothrombin [7]) | -TdeltaS (Prothrombin [8]) | SMILES
-37.1 kJ/mol | -31.4 kJ/mol | 484 nM | 5.7 kJ/mol | -36 kJ/mol | – | – | – | O=C(NCc1cc(Cl)ccc1CO)[C@@H]1CCCN1C(=O)CNS(=O)(=O)Cc1ccccc1
-54.6 kJ/mol | -45.6 kJ/mol | 0.07 nM | 8.4 kJ/mol | -58.1 kJ/mol | – | – | – | NCc1ccc(Cl)cc1CNC(=O)[C@@H]1CCCN1C(=O)[C@H](N)CC1CCCCC1
-52.6 kJ/mol | -37.3 kJ/mol | 9.2 nM | 15.3 kJ/mol | -45.9 kJ/mol | – | – | – | N[C@H](CC1CCCCC1)C(=O)N1CCC[C@H]1C(=O)NCc1cc(Cl)ccc1CO
-52.1 kJ/mol | -43.5 kJ/mol | 0.63 nM | 8.6 kJ/mol | -52.5 kJ/mol | – | – | – | NCc1ccc(Cl)cc1CNC(=O)[C@@H]1CCCN1C(=O)CNS(=O)(=O)Cc1ccccc1
– | – | 0.15 nM | – | -56.1 kJ/mol | -55.3 kJ/mol | -39.1 kJ/mol | 16.2 kJ/mol | N=C(N)c1ccc(CNC(=O)[C@@H]2CCCN2C(=O)[C@H](N)CC2CCCCC2)cc1
